Common to all, as to format: in vivo
For test [1], the system named is morningglory (Ipomoea coccinea). Put plainly: Test C preemergence morningglory. Conditions: Table C, scale 0 to 100. The source says:
(§1) Seeds of plant species selected from blackgrass (Alopecurus myosuroides), ryegrass, Italian (Italian ryegrass, Lolium multiflorum), wheat (winter wheat, Triticum aestivum), galium (catchweed bedstraw, Galium aparine), corn (Zea mays), crabgrass, large (large crabgrass, Digitaria sanguinalis), foxtail, giant (giant foxtail, Setaria faberii), johnsongrass (Sorghum halepense), lambsquarters (Chenopodium album), morningglory (Ipomoea coccinea), yellow (yellow nutsedge, Cyperus esculentus), pigweed (Amaranthus retroflexus), ragweed (common ragweed, Ambrosia elatior), soybean (Glycine max), barnyardgrass (Echinochloa crus-galli), oilseed rape (Brassica napus), waterhemp (common waterhemp, Amaranthus rudis), and velvetleaf (Abutilon theophrasti) were planted into a blend of loam soil and sand and treated preemergence with test chemicals formulated in a non-phytotoxic solvent mixture which included a surfactant. At the same time, plants selected from these crop and weed species and also chickweed (common chickweed, Stellaria media), kochia (Kochia scoparia), and oat, wild (wild oat, Avena fatua) were planted in pots containing Sunshine Redi-Earth® planting medium comprising spaghnum peat moss, vermiculite, starter nutrients and dolomitic limestone and treated with postemergence applications of test chemicals formulated in the same manner. Plants ranged in height from 2 to 18 cm (1- to 4-leaf stage) for postemergence treatments. Treated plants and controls were maintained in a greenhouse for 13 to 15 days, after which time all species were compared to controls and visually evaluated. Plant response ratings, summarized in Table C, are based on a scale of 0 to 100 where 0 is no effect and 100 is complete control. A dash (-) response means no test result.

In test [2] the test system is yellow (yellow nutsedge, Cyperus esculentus). Put plainly: Test C preemergence yellow nutsedge. Conditions: Table C, scale 0 to 100.
Description: as §1

Test [3] has as its system foxtail, giant (giant foxtail, Setaria faberii). Put plainly: Test C postemergence foxtail, giant. The settings on record: Table C, scale 0 to 100.
Description: as §1

Test [4] has as its system lambsquarters (Chenopodium album). Put plainly: Test C postemergence lambsquarters. Conditions: Table C, scale 0 to 100.
Description: as §1

For test [5], the system named is morningglory (Ipomoea coccinea). Put plainly: Test C postemergence morningglory. The settings on record: Table C, scale 0 to 100.
Description: as §1

For test [6], the system named is oilseed rape (Brassica napus). Nature of the test: Test C postemergence oilseed rape. The settings on record: Table C, scale 0 to 100.
Description: as §1

The subject of test [7] is waterhemp (common waterhemp, Amaranthus rudis). Put plainly: Test C postemergence waterhemp. The settings on record: Table C, scale 0 to 100.
Description: as §1

The subject of test [8] is velvetleaf (Abutilon theophrasti). Put plainly: Test C postemergence velvetleaf. Conditions: Table C, scale 0 to 100.
Description: as §1

For test [9], the system named is oat, wild (wild oat, Avena fatua). Nature of the test: Test C postemergence oat, wild. Conditions: Table C, scale 0 to 100.
Description: as §1

Test [10] relates to crabgrass, large (large crabgrass, Digitaria sanguinalis). Put plainly: Test A postemergence crabgrass, large. The settings on record: 0 to 100 scale, 0 is no effect, 100 is complete control. An outline of the steps: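 Injury was scored by eye on a 0 to 100 scale after about 10 days in the greenhouse, with 100 meaning complete control. Preemergence treatment was a directed spray onto soil over seeds; postemergence treatment went onto one- to two-leaf plants 2–10 cm tall.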

The structures appear in SMILES notation.

The text below walks through data of US9944602B2, “Piperidinone herbicides” (E. I. DU PONT DE NEMOURS AND COMPANY, priority 2014, dated 2018).

On to `O=C1NCCC(c2cccc(C(F)(F)F)c2)C1C(=O)Nc1ccc(F)c(F)c1F` (racemic) [Compound 28], for which the Plant response rating came out at 5 in test [1] (31 g ai/ha); 5 in test [1] (62 g ai/ha); 5 in test [1] (125 g ai/ha); 30 in [1] (250 g ai/ha); 0 in [2] (31 g ai/ha); 0 in [2] (62 g ai/ha). Moreover, the values for the Plant response rating in test [2] (125 g ai/ha) and in test [2] (250 g ai/ha) were 10 and 50, respectively.
For `O=C1NCCC(c2cccc(C(F)(F)F)c2)C1C(=O)Nc1ccccc1Cl` (racemic) [Compound 17], the Plant response rating is 0 in test [3] (31 g ai/ha); 5 in test [3] (62 g ai/ha); 5 in test [3] (125 g ai/ha); 5 in test [3] (250 g ai/ha); 75 in [4] (62 g ai/ha); 80 in test [4] (250 g ai/ha). Also, the Plant response rating in test [5] (31 g ai/ha) was 0; in [5] (62 g ai/ha), 0; in test [5] (125 g ai/ha), 0; in test [5] (250 g ai/ha), 5; in test [6] (31 g ai/ha) it was 0; in [6] (62 g ai/ha), 0. Moreover, the Plant response rating in test [6] (125 g ai/ha), in test [6] (250 g ai/ha), in test [7] (31 g ai/ha), in test [7] (62 g ai/ha), in test [7] (125 g ai/ha) and in [7] (250 g ai/ha) was 0 throughout. Moreover, the Plant response rating in test [8] (31 g ai/ha), in [8] (62 g ai/ha), in test [8] (125 g ai/ha), in test [8] (250 g ai/ha), in [9] (31 g ai/ha) and in test [9] (62 g ai/ha) was 0 each time. Further, the Plant response rating in test [9] (125 g ai/ha) and in test [9] (250 g ai/ha) was 0 throughout.
Consider `O=C1NCCC(c2cccc(C(F)(F)F)c2)C1C(=O)Nc1cccc(F)c1F` (centres unmarked) [Compound 9, N-(2,3-difluorophenyl)-2-oxo-4-[3-(trifluoromethyl)phenyl]-3-piperidinecarboxamide], for which the “Plant response rating, Crabgrass, Large” value is on record as 80 in [10] (125 g ai/ha) and 90 in test [10] (500 g ai/ha). The Plant response rating in test [1] (31 g ai/ha) was 0; in [1] (62 g ai/ha) it was 20; in test [1] (125 g ai/ha), 5; in [1] (250 g ai/ha), 45; in test [2] (31 g ai/ha) it was 0; in [2] (62 g ai/ha), 0. For the same compound, the Plant response rating in test [2] (125 g ai/ha) came to 0; in test [2] (250 g ai/ha), 0; in test [3] (31 g ai/ha) it was 0; in test [3] (62 g ai/ha), 5; in test [3] (125 g ai/ha), 35; in [3] (250 g ai/ha), 85. Further, the Plant response rating in test [4] (31 g ai/ha) is on record as 0; in test [4] (62 g ai/ha), 0; in [4] (125 g ai/ha) it was 5; in test [4] (250 g ai/ha), 0; in [5] (31 g ai/ha) it was 0; in test [5] (62 g ai/ha) it was 0. The Plant response rating worked out at 30 in [5] (125 g ai/ha); 40 in [5] (250 g ai/ha); 0 in test [6] (31 g ai/ha); 0 in test [6] (62 g ai/ha); 0 in [6] (125 g ai/ha); 5 in test [6] (250 g ai/ha). Also, the Plant response rating in [7] (31 g ai/ha) was found to be 0; in test [7] (62 g ai/ha), 5; in test [7] (125 g ai/ha), 0; in test [7] (250 g ai/ha) it was 5; in test [8] (31 g ai/ha), 0; in test [8] (62 g ai/ha) it was 0. In addition, the Plant response rating in test [8] (125 g ai/ha), in test [8] (250 g ai/ha), in test [9] (31 g ai/ha), in test [9] (62 g ai/ha), in test [9] (125 g ai/ha) and in test [9] (250 g ai/ha) was 0 each time.
Turning to `O=C1NCCC(c2cccc(C(F)(F)F)c2)C1C(=O)Nc1ccccc1C(F)(F)F` (centres unmarked) [Compound 10, 2-oxo-N-[2-(trifluoromethyl)phenyl)-4-[3-(trifluoromethyl)phenyl]-3-piperidinecarboxamide], the “Plant response rating, Crabgrass, Large” value in test [10] (125 g ai/ha) turned out to be 60; in test [10] (500 g ai/ha), 80.
